According to paper PMC5487681, “Identification of Antifungal H^+-ATPase Inhibitors with Effect on Plasma Membrane Potential” (Antimicrobial Agents and Chemotherapy, 2017):
Residues, ends and D or L forms follow the SMILES beside them.

Experiments:
S. cerevisiae Pma1 = S. cerevisiae Pma1 (Saccharomyces cerevisiae, UniProt P05030); conditions: read-out: IC50 Pma1, ATP hydrolysis assay; cited from earlier work
S. cerevisiae cells [1] = test: Membrane potential and integrity assay, DiBAC4(3)/PI image cytometry; format: cell-based, Saccharomyces cerevisiae; conditions: for PI signal (membrane integrity), in words: compound 14 after 5 min, BM2 within 5 min; for PI signal (membrane integrity), in words / DiBAC4(3) signal (membrane depolarization), in words: compound 17 15 µM, 30 min (Fig. S1); for DiBAC4(3) signal (membrane depolarization), in words: compound 14 after 5 min of exposure
Description: Cells were transferred from frozen stocks to 3 ml of YPD medium and grown overnight at 30°C and 150 rpm. The culture was diluted to an OD600 of 0.15 and grown for 3 to 4 h at 30°C and 150 rpm to an OD600 of 0.5 to 0.7. The cells were pelleted by centrifugation at 2,000 × g for 2 min and washed in buffer A (100 mM MOPS and 1 mM KCl adjusted to pH 7.0 with Trizma base). The washing procedure was repeated, and the cells were resuspended in buffer A to an OD600 of 0.2. Fifty microliters of buffer A containing 3.3 μg/ml propidium iodide (PI; catalog number P1304MP; Thermo Fisher Scientific) and 1 μg/ml DiBAC4(3) (catalog number D8189; Sigma-Aldrich) was mixed with 50 μl the S. cerevisiae cell suspension in buffer A and transferred to a 96-well plate with 1 μl of inhibitor in DMSO, and the components were mixed.
Approximately 30 μl sample was transferred to an A2 glass slide (ChemoMetec, Allerod, Denmark), and the slide was incubated at 30°C before the cells were counted on a NucleoCounter NC-3000 cytometer (ChemoMetec). Five thousand cells were counted per experiment with an exposure time of 1,000 ms. A dark field was used as the masking channel to select the yeast cells. The DiBAC4(3) channel (excitation, 530 nm; emission, 675/75 nm) and the PI channel (excitation, 630 nm; emission, 740/60 nm) were used to measure the membrane potential and membrane integrity, respectively. To account for the fluorescent spillover from the PI channel to the DiBAC4(3) channel, 15% compensation was applied. In all experiments, 1.9% compensation was used to compensate for the DiBAC4(3)-to-PI spillover. The results were analyzed using NucleoView software (ChemoMetec). Only cells with a pixel size of 10 to 40 were included in the analysis, thus avoiding analysis of noncell artifacts. Carbonyl cyanide m-chlorophenylhydrazone (CCCP) was used as a positive control for decreased membrane potential, and lysis buffer was used to validate lost membrane integrity.

S. cerevisiae cells [2] = test: Intracellular ATP (iATP), S. cerevisiae; format: cell-based, Saccharomyces cerevisiae; conditions: for Effects on iATP levels, in words: S. cerevisiae and C. albicans (Fig. 5A, B), compared to compounds 14, 19 and BM2
Description: (§1) S. cerevisiae and C. albicans cells were grown and washed as described above for the membrane potential and integrity assay and resuspended in SG medium (0.7% yeast nitrogen base without amino acids [BD], 50 mM succinic acid adjusted to pH 7 with Trizma base) to OD600 of 0.2 and 0.1, respectively. One hundred microliters of an S. cerevisiae or C. albicans cell suspension and 1 μl compound in DMSO were incubated for 30 min. Twenty-five microliters of the suspension was then transferred to a black 96-well plate containing 25 μl BacTiter-Glo reagent (Promega, Madison, WI) and incubated for 15 min in the dark. The luminescence was read on SpectraMax X5 (Molecular Devices, Sunnyvale, CA) plate reader with a 10 s of shaking and a 0.5 s integration time. Standard curves at 10, 100, and 1,000 nM ATP were performed with every experiment.

C. albicans cells = test: Intracellular ATP (iATP), C. albicans; format: cell-based, Candida albicans; conditions: for EC50: Candida albicans, 0.5 h, 30 min, dose response (Fig. 5C), read-out: EC50 of the increase in iATP levels, C. albicans; for Maximum iATP level (per well), C. albicans: highest concentrations of inhibitors tested (Fig. 5C)
Description: as §1

C. albicans = conditions: read-out: IC50 for C. albicans, previously reported value; cited from earlier work
[3] = 30 min of exposure, 15 μM (Fig. 4C)

Chain of S. cerevisiae Pma1 (P05030 whole entry): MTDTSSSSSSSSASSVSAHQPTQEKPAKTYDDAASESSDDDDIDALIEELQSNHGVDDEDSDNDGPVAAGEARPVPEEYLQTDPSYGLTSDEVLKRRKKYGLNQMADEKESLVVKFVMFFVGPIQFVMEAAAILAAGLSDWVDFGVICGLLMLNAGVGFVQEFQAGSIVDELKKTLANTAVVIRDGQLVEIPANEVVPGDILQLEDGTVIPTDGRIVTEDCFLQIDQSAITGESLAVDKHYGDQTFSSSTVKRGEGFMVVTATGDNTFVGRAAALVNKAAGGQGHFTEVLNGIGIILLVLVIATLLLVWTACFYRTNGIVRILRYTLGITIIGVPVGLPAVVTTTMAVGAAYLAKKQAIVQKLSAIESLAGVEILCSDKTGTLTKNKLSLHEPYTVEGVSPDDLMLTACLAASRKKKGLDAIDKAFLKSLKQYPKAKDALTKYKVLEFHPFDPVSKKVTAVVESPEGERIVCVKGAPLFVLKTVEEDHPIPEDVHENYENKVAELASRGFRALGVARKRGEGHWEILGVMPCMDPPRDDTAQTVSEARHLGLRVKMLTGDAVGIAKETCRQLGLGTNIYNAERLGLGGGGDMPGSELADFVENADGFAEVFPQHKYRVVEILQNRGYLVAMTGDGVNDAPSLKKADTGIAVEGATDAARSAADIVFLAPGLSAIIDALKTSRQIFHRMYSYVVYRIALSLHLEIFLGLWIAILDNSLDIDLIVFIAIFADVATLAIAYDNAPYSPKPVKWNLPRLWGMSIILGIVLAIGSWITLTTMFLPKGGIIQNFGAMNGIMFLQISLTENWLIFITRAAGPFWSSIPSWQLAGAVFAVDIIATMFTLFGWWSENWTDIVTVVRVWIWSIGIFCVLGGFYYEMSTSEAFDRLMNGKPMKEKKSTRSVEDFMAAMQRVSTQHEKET

| SMILES | PI signal (membrane integrity), in words (S. cerevisiae cells [1]) | DiBAC4(3) signal (membrane depolarization), in words (S. cerevisiae cells [1]) | EC50 (C. albicans cells) [µM] | Maximum iATP level (per well), C. albicans (C. albicans cells) | Effects on iATP levels, in words (S. cerevisiae cells [2]) | other results |
| --- | --- | --- | --- | --- | --- | --- |
| N=C(N)NCCC[C@@H](N)C(=O)N[C@H](CCCNC(=N)N)C(=O)N[C@H](CCCNC(=N)N)C(=O)N[C@H](Cc1ccccc1)C(=O)N[C@H](Cc1c[nH]c2ccccc12)C(=O)N[C@H](Cc1c[nH]c2ccccc12)C(=O)N[C@H](Cc1ccccc1)C(=O)N[C@H](CCCNC(=N)N)C(=O)N[C@H](CCCNC(=N)N)C(=O)N[C@H](CCCNC(=N)N)C(N)=O [BM2, reference compound] (HELM PEPTIDE1{[dR].[dR].[dR].[dF].[dW].[dW].[dF].[dR].[dR].[dR].[am]}$$$$V2.0) |  |  |  |  |  | IC50 (S. cerevisiae Pma1): 0.5 µM |
| CCCCc1nc2sc3c(NCCCN(C)C)ncnc3c2c2c1CCCC2 [Compound 14] | minimal increase | elevated | 13 | about 500 nM |  | Cells DiBAC4(3) positive and PI negative (S. cerevisiae cells [1]; [3]): 44%; Cells PI positive but DiBAC4(3) negative (S. cerevisiae cells [1]; [3]): 0.7%; Cells both PI and DiBAC4(3) negative (S. cerevisiae cells [1]; [3]): 16%; Cells both PI and DiBAC4(3) positive (S. cerevisiae cells [1]; [3]): 39%; iATP levels in the presence of oligomycin, S. cerevisiae (S. cerevisiae cells [2]; 30 min, oligomycin A at 40 μM): comparable to those for control cells; Increase in iATP levels compared to untreated control, S. cerevisiae (S. cerevisiae cells [2]; 30 min of treatment, species of the BM2 value not given): 200%; Increase in iATP levels compared to untreated control, C. albicans (C. albicans cells; 30 min of treatment): 1,500% |
| CCc1nc2sc3c(NCCCN(C)C)ncnc3c2c2c1CCCC2 [Compound 17] | not significantly increased | did not increase |  |  | minimal effects |  |
| CCN(CC)CCCNc1nc(SC)nc2c1sc1nc(-c3ccccc3)c3c(c12)CCC3 [Compound 19] |  |  | 7 | about 500 nM |  |  |
| O=c1c2ccccc2[se]n1-c1ccccc1 [Ebselen, reference compound] |  |  |  |  |  | IC50 (C. albicans): 14 µM |
| [O]=[V]([O-])([O-])[O-] [Vanadate, reference compound] |  |  |  |  | minimal effects |  |
